Measured values taken from patent US12691070B2, “Cationic lipids and preparation method thereof” (RiboX Therapeutics HK Limited, priority 2023, dated 2026).

How the values were obtained:
[1] = LNP size and polydispersity index (PDI) by dynamic light scattering; format: physicochemical; settings: for Size: in nm (unit assumed)
How it was run: (§1)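 LNPs of ionizable lipid/DSPC/cholesterol/DMG-PEG 2000 (50:10:38.5:1.5) made by microfluidic mixing of luciferase circRNA or mRNA in pH 4.5 acetate with lipids in ethanol (3:1, 12 ml/min), ionizable lipid:nucleotide 15 or 6, then dialyzed against PBS. Size, PDI (DLS) and zeta potential on Zetasizer; encapsulation by Ribogreen ± Triton X-100.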

[2] = LNP zeta potential (Zetasizer); format: physicochemical
How it was run: as §1

[3] = RNA encapsulation efficacy by Quant-IT Ribogreen kit; format: physicochemical; settings: for Encapsulation Efficiency %: LNP with cirRNA (SEQ ID NO: 1); for Encapsulation Efficiency: LNP with mRNA (SEQ ID NO: 2)
How it was run: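 Encapsulation efficacy came from Ribogreen fluorescence of LNPs compared with Triton X-100-lysed LNPs. The particles carried luciferase-encoding circular or linear RNA at an ionizable lipid:ribonucleotide ratio of 15 or 6.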

[4] = test system: Hep G2 cells; assay: In vitro expression of firefly-luciferase, Hep G2; format: cell-based
How it was run: (§2)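 Transfection used 100 ng/mL luciferase-encoding RNA-LNPs; activity in lysates was determined at 72 h.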

[5] = test system: RAW 264.7 cells; assay: In vitro expression of firefly-luciferase, RAW 264.7; format: cell-based
How it was run: as §2

[6] = test system: Hep G2 cells; assay: In vitro toxicity (CellTiter-Glo cell viability), Hep G2; format: cell-based;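 also: percent of untreated cells luminescence signal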
How it was run: (§3)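 First, cells receive RNA-LNPs at 1 μg/mL by transfection. After 72 hours, CellTiter-Glo reagent is added per kit protocol. Luminescence is then read and converted to cell viability.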

[7] = test system: RAW 264.7 cells; assay: In vitro toxicity (CellTiter-Glo cell viability), RAW 264.7; format: cell-based;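 also: percent of untreated cells luminescence signal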
How it was run: as §3

[8] = test system: BALB/C mice; assay: In vivo expression, whole-body luminescence (IVIS)
Experimental: 6-8 week old, female BALB/C mice were injected with 0.05 mg*kg-1 of RNA-LNPs encoding for firefly-luciferase by intravenous injection. At 6 hours post injection, animals were intraperitoneally injected with 15 mg/ml of Luciferin substrate and whole-body luminescence was determined by a bioluminescent in vivo imaging system (IVIS).

[9] = test system: MCP-I; assay: MCP-I cytokine elevation in serum; format: in vivo; settings: cirRNA (SEQ ID NO: 1) LNPs, mice
Experimental: 6-8 week old, female BALB/C mice were injected with 0.5 mg*kg-1 of RNA LNPs by intravenous injection. At 2 and 24 hours post injection, animals were bled and sera concentrations of MCP-I were determined by an immunoassay (Luminex).

[10] = test system: Alanine Aminotransferase (ALT); assay: Liver enzyme elevation in serum, ALT; format: in vivo; settings: cirRNA (SEQ ID NO: 1) LNPs, BALB/C mice, intravenous 0.5 MPK
Experimental: (§4) 6-8 week old, female BALB/C mice were injected with 0.5 mg*kg-1 of RNA LNPs by intravenous injection. At 2 and 24 hours post injection, animals were bled and sera concentrations of Alanine Aminotransferase (ALT) and Aspartate Aminotransferase (AST) were determined by a blood chemistry analyzer.

[11] = test system: Aspartate Aminotransferase (AST); assay: Liver enzyme elevation in serum, AST; format: in vivo; settings: cirRNA (SEQ ID NO: 1) LNPs, BALB/C mice, intravenous 0.5 MPK
Experimental: as §4

[12] = test system: BALB/C mice; assay: Local tolerance determination by footpad injection; format: in vivo; settings: cirRNA (SEQ ID NO: 1) LNP, 0.175 mg*kg-1 subcutaneous into the footpad, 24 hours post minus prior
Experimental: 6-8 week old, female BALB/C mice were injected with 0.175 mg*kg-1 RNA LNPs by subcutaneous injection into the footpad. Prior to, and 24 hours post injections, injected footpad thickness was determined by a caliper.

[13] = cirRNA (SEQ ID NO: 1) LNPs, firefly-luciferase luminescence, Hep G2 cells
[14] = mRNA (SEQ ID NO: 2) LNP, 100 ng/mL, 72 hours post transfection, luciferase activity
[15] = cirRNA (SEQ ID NO: 1) LNPs, firefly-luciferase luminescence, RAW 264.7 cells
[16] = cirRNA (SEQ ID NO: 1) LNPs, Hep G2 cells
[17] = mRNA (SEQ ID NO: 2) LNP, 1 μg/mL, 72 hours post transfection
[18] = cirRNA (SEQ ID NO: 1) LNPs, RAW 264.7 cells
[19] = cirRNA (SEQ ID NO: 1) LNPs, BALB/C mice
[20] = mRNA (SEQ ID NO: 2) LNP, 0.05 mg*kg-1 intravenous, 6 hours post injection

Row | PDI ([1]; LNP with cirRNA (SEQ ID NO: 1)) | Size ([1]; LNP with cirRNA (SEQ ID NO: 1)) | PDI ([1]; LNP with mRNA (SEQ ID NO: 2)) | Size ([1]; LNP with mRNA (SEQ ID NO: 2)) | Zeta (mV) ([2]; LNP with cirRNA (SEQ ID NO: 1)) | Zeta (mV) ([2]; LNP with mRNA (SEQ ID NO: 2)) | Encapsulation Efficiency % [3] [%] | Encapsulation Efficiency [3] [%] | MCP-I in Sera 2 hours After 0.5 MPK Injection [9] [pg/mL] | MCP-I in Sera 24 hours After 0.5 MPK Injection [9] [pg/mL] | Structure (SMILES) | In vitro Expression HepG2 [4, 13] | In vitro Expression HepG2 [4, 14] | In vitro Expression RAW [5, 15] | In vitro Expression RAW [5, 14] | In vitro Viability HepG2 [6, 16] [%] | In vitro Viability HepG2 [6, 17] [%] | In vitro Viability RAW [7, 18] [%] | In vitro Viability RAW [7, 17] [%] | In vivo Expression (Whole Body) [8, 19] | In vivo Expression (Whole Body) [8, 20] | further results
1 | 0.22 | 74.78 | 0.1606 | 84.16 | 5.61 | 15.29 | 96 | 90.68 | 5003.82 | 16.42 | CCCCC/C=C\C/C=C\CCCCCCCCN(CCCCCCCC(=O)OC(CCCCCCCC)CCCCCCCC)CCOC(=O)NCCCN(CC)CC [Lipid 131, heptadecan-9-yl 3-ethyl-12-((9Z,12Z)-octadeca-9,12-dien-1-yl)-8-oxo-9-oxa-3,7,12-triazaicosan-20-oate] | 4.49E+06 | 5.66E+06 | 4.04E+06 | 9.55E+05 | 83 | 89 | 77 | 96 | 2.27E+08 | 4.52E+07 | ALT in Sera (IU/L) 2 hours After 0.5 MPK Injection [10]: 51.17 IU/L; ALT in Sera (IU/L) 24 hours After 0.5 MPK Injection [10]: 44.57 IU/L; AST in Sera (IU/L) 2 hours After 0.5 MPK Injection [11]: 161.27 IU/L; AST in Sera (IU/L) 24 hours After 0.5 MPK Injection [11]: 83.17 IU/L; Footpad Thickness (24 h−0 h, mm) [12]: 1.17 mm
2 | 0.072 | 91.78 | 0.2359 | 56.12 | −0.7024 | −8.336 | 97 | 89.06 | 28.53 | 96.56 | CCCCC/C=C\C/C=C\CCCCCCCCN(CCCCCCCC(=O)OC(CCCCCCCC)CCCCCCCC)CCOC(=O)NCc1ncc[nH]1 [Lipid 132, heptadecan-9-yl 8-((2-((((1H-imidazol-2-yl)methyl)carbamoyl)oxy)ethyl)((9Z,12Z)-octadeca-9,12-dien-1-yl)amino)octanoate] | 1.44E+05 | 1.83E+05 | 4.24E+05 | 1.27E+05 | 97 | 80 | 108 | 93 | 6.13E+08 | 6.62E+08 | ALT in Sera (IU/L) 2 hours After 0.5 MPK Injection [10]: 65.03 IU/L; ALT in Sera (IU/L) 24 hours After 0.5 MPK Injection [10]: 44.73 IU/L; AST in Sera (IU/L) 2 hours After 0.5 MPK Injection [11]: 136.00 IU/L; AST in Sera (IU/L) 24 hours After 0.5 MPK Injection [11]: 72.53 IU/L; Footpad Thickness (24 h−0 h, mm) [12]: 1.24 mm
3 | 0.03 | 93.46 | 0.07065 | 122.1 | −2.35 | 3.769 | 95 | 93.50 | 6709.61 | 69.59 | CCCCCCCCC(CCCCCCCC)OC(=O)CCCCCCCN(CCCCCCCCOC(=O)C(CCCCCC)CCCCCCCC)CCOC(=O)NCCN1CCCC1 (stereo not drawn) [Lipid 148, 8-((8-(heptadecan-9-yloxy)-8-oxooctyl)(2-(((2-(pyrrolidin-1-yl)ethyl)carbamoyl)oxy)ethyl)amino)octyl 2-hexyldecanoate] | 2.35E+06 | 6.39E+02 | 2.40E+05 | 8.69E+05 | 47 | 128 | 21 | 102 | 5.07E+08 | 1.69E+09 | ALT in Sera (IU/L) 2 hours After 0.5 MPK Injection [10]: 53.60 IU/L; ALT in Sera (IU/L) 24 hours After 0.5 MPK Injection [10]: 59.93 IU/L; AST in Sera (IU/L) 2 hours After 0.5 MPK Injection [11]: 136.17 IU/L; AST in Sera (IU/L) 24 hours After 0.5 MPK Injection [11]: 108.13 IU/L; Footpad Thickness (24 h−0 h, mm) [12]: 0.23 mm
4 | 0.05 | 90.53 | 0.1265 | 98.24 | −1.76 | −0.3264 | 91 | 86.43 | 127.19 | 113.67 | CCCCCCCCCCCOC(=O)CCCCCN(CCCCCCCC(=O)OC(CCCCCCCC)CCCCCCCC)CCOC(=O)NCCN1CCCCC1 [Lipid 165] | 7.20E+05 | 3.27E+06 | 5.29E+04 | 6.06E+05 | 94 | 93 | 88 | 101 | 1.11E+08 | 1.63E+08 | ALT in Sera (IU/L) 2 hours After 0.5 MPK Injection [10]: 63.90 IU/L; ALT in Sera (IU/L) 24 hours After 0.5 MPK Injection [10]: 61.47 IU/L; AST in Sera (IU/L) 2 hours After 0.5 MPK Injection [11]: 128.43 IU/L; AST in Sera (IU/L) 24 hours After 0.5 MPK Injection [11]: 99.03 IU/L; Footpad Thickness (24 h−0 h, mm) [12]: 0.32 mm
5 | 0.06 | 93.98 | 0.101 | 68.36 | −0.573 | 0.8152 | 97 | 89.10 | 4607.51 | 75.08 | CCCCCCCCCCC(CCCCCCCC)COC(=O)CCCCCN(CCCCCC(=O)OCC(CCCCCCCC)CCCCCCCCCC)CCOC(=O)NCCN1CCCC1 (stereo not drawn) [Lipid 168] | 1.03E+07 | 1.80E+07 | 1.66E+06 | 6.99E+05 | 55 | 70 | 79 | 75 | 4.82E+08 | 5.89E+09 | ALT in Sera (IU/L) 2 hours After 0.5 MPK Injection [10]: 72.80 IU/L; ALT in Sera (IU/L) 24 hours After 0.5 MPK Injection [10]: 57.60 IU/L; AST in Sera (IU/L) 2 hours After 0.5 MPK Injection [11]: 218.63 IU/L; AST in Sera (IU/L) 24 hours After 0.5 MPK Injection [11]: 139.13 IU/L; Footpad Thickness (24 h−0 h, mm) [12]: 1.13 mm
6 | 0.003 | 73.59 | 0.07881 | 88.09 | −2.92 | −0.8755 | 95 | 87.64 | 509.14 | 80.18 | CCCCCCCCCCC(CCCCCCCC)COC(=O)CCCCCN(CCCCCC(=O)OCC(CCCCCCCC)CCCCCCCCCC)CCOC(=O)NCCN1CCCCC1 (stereo not drawn) [Lipid 169] | 1.94E+06 | 1.59E+07 | 5.36E+05 | 2.87E+06 | 88 | 93 | 82 | 83 | 4.92E+08 | 1.46E+09 | ALT in Sera (IU/L) 2 hours After 0.5 MPK Injection [10]: 65.40 IU/L; ALT in Sera (IU/L) 24 hours After 0.5 MPK Injection [10]: 57.80 IU/L; AST in Sera (IU/L) 2 hours After 0.5 MPK Injection [11]: 129.50 IU/L; AST in Sera (IU/L) 24 hours After 0.5 MPK Injection [11]: 87.00 IU/L; Footpad Thickness (24 h−0 h, mm) [12]: 0.84 mm
